The text below walks through data of patent US8278304B2, “Substituted 4-hydroxypyrimidine-5-carboxamides” (Merck Sharp & Dohme Corp., priority 2008, dated 2012).

In the test the target is T1, PHD2 (Homo sapiens, UniProt Q9GZT9).
T1 construct: FLAG-tagged full length PHD2 expressed in and purified from baculovirus-infected Sf9 cells; FLAG; made in house; host or cells: baculovirus-infected Sf9 cells
As to the kind of experiment: PHD2 / HIF-1α peptide hydroxylation assay, time resolved fluorescence (VHL complex detection). The test is classed as biochemical. To be noted: FLAG-tagged full length PHD2; 0.2 μM 2-oxoglutarate, 0.5 μM HIF-1α peptide; read-out: PHD2 Activity (PHD2 binding activity expressed as IC50 (nM)). In short, it runs like this: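 Sf9-expressed FLAG-tagged full-length PHD2 (0.15 μg/ml) preincubated with compound 30 min at room temperature in Tris pH 7.4 buffer with 10 μM ferrous sulfate, 1 mM ascorbate and catalase. Reaction started with 0.2 μM 2-oxoglutarate and 0.5 μM biotinylated HIF-1α peptide (final); hydroxylation detected by time-resolved fluorescence via VHL complex binding.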

Where a name gives a salt, the structure may show the parent alone.

In general, IC50 refers to the point on the concentration scale where inhibition reaches its midpoint.

T1 sequence (Q9GZT9 whole entry): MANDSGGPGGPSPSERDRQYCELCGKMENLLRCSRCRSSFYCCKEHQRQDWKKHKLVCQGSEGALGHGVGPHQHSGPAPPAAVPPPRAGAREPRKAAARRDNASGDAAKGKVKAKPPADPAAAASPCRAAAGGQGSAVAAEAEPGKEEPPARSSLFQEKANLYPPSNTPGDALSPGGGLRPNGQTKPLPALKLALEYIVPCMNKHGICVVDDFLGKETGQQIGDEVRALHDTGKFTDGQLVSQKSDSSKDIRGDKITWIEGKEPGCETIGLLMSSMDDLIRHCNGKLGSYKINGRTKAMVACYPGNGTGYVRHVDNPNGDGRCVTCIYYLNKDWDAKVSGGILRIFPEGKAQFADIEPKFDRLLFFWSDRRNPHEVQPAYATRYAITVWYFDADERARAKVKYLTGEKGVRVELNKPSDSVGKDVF

Regarding `O=C(NC1(c2ccccc2)CCCCC1)c1cnc(-n2cccn2)nc1O` [Example 94, 4-hydroxy-N-(1-phenylcyclohexyl)-2-(1H-pyrazol-1-yl)pyrimidine-5-carboxamide], the IC50 was at most 10 nM.

Take `Cc1nc(-c2ncc(C(=O)NCc3ccc(-c4ccccc4)cc3)c(O)n2)cs1` [Example 30, N-(biphenyl-4-ylmethyl)-4-hydroxy-2-(2-methyl-1,3-thiazol-4-yl)pyrimidine-5-carboxamide]: the IC50 lay in the range of 10 to 100 nM.

Turning to `Cc1ccc(CNC(=O)c2cnc(-n3cccn3)nc2O)cc1` [Example 77, 4-Hydroxy-N-(4-methylbenzyl)-2-(1H-pyrazol-1-yl)pyrimidine-5-carboxamide], the half-maximal inhibitory concentration (IC50) lay within 10 to 100 nM.

In the case of `Cc1cnc(CNC(=O)c2cnc(-n3cccn3)nc2O)cn1` [Example 66, 4-Hydroxy-N-[(5-methylpyrazin-2-yl)methyl]-2-(1H-pyrazol-1-yl)pyrimidine-5-carboxamide], the IC50 was 100 to 1000 nM.

Regarding `CC(C)CC(NC(=O)c1cnc(-c2cccnn2)nc1O)c1ccc(C#N)cc1` (single isomer, unassigned) [Example 159, N-[1-(4-cyanophenyl)-3-methylbutyl]-4-hydroxy-2-(pyridazin-3-yl)pyrimidine-5-carboxamide], the IC50 was in the range of 10 to 100 nM.

As for `COc1ccc(C(NC(=O)c2cnc(-c3cccnn3)nc2O)c2cccc(C)n2)c(OC)c1` (stereo not drawn) [Example 115, N-[(2,4-Dimethoxyphenyl)(6-methylpyridin-2-yl)methyl]-4-hydroxy-2-pyridazin-3-ylpyrimidine-5-carboxamide], the IC50 was at most 10 nM.

Consider `O=C(NCc1cccc(-c2ccccc2)c1)c1cnc(-n2cccn2)nc1O` [Example 53, N-(biphenyl-3-ylmethyl)-4-hydroxy-2-(1H-pyrazol-1-yl)pyrimidine-5-carboxamide], for which the IC50 is at most 10 nM.

`COc1ccc(C(NC(=O)c2cnc(-c3cccnn3)nc2O)c2cccc(C#N)c2)cc1` (single isomer, unassigned) [Example 147, N-[(3-cyanophenyl)(4-methoxyphenyl)methyl]-4-hydroxy-2-(pyridazin-3-yl)pyrimidine-5-carboxamide]: the IC50 is at most 10 nM.

Turning to `N#Cc1ccc(CNC(=O)c2cnc(-n3cccn3)nc2O)cn1` [Example 110, N-[(6-cyanopyridin-3-yl)methyl]-4-hydroxy-2-(1H-pyrazol-1-yl)pyrimidine-5-carboxamide], the IC50 is 10 to 100 nM.

Regarding `O=C(N[C@H](c1ccccc1)[C@H](O)c1ccccc1)c1cnc(-c2cccnn2)nc1O` [Example 139, 4-hydroxy-N-[(1R,2R)-2-hydroxy-1,2-diphenylethyl]-2-(pyridazin-3-yl)pyrimidine-5-carboxamide], the IC50 is at most 10 nM.

Consider `COc1ccc(C(NC(=O)c2cnc(-c3cccnn3)nc2O)c2ccc(OC)nc2)cc1` (single isomer, unassigned) [Example 190], for which the IC50 was at most 10 nM.

On to `C[C@H](NC(=O)c1cnc(-n2cccn2)nc1O)c1ccc(Oc2ccccc2)cc1` [Example 129, 4-hydroxy-N-[(1S)-1-(4-phenoxyphenyl)ethyl]-2-(1H-pyrazol-1-yl)pyrimidine-5-carboxamide], for which the half-inhibitory concentration (IC50) is at most 10 nM.

As to `N#Cc1ccc(C(NC(=O)c2cnc(-c3cccnn3)nc2O)C2CCCCC2)cc1` (single isomer, unassigned) [Example 163, N-[(4-cyanophenyl)(cyclohexyl)methyl]-4-hydroxy-2-(pyridazin-3-yl)pyrimidine-5-carboxamide], the IC50 is at most 10 nM.

Consider `COc1ccc(C(NC(=O)c2cnc(-c3cccnn3)nc2O)c2ccc(OC)cc2OC)c(OC)c1` [Example 174, N-[bis(2,4-dimethoxyphenyl)methyl]-4-hydroxy-2-(pyridazin-3-yl)pyrimidine-5-carboxamide], for which the IC50 was at most 10 nM.

As for `CC(C)(NC(=O)c1cnc(-n2cccn2)nc1O)c1ccc(Br)cc1` [Example 92, N-[1-(4-bromophenyl)-1-methylethyl]-4-hydroxy-2-(1H-pyrazol-1-yl)pyrimidine-5-carboxamide], the IC50 was at most 10 nM.

Take `Cc1ccc(Oc2ccc(CNC(=O)c3cnc(-n4cccn4)nc3O)cc2)cc1` [Example 97, 4-hydroxy-N-[4-(4-methylphenoxy)benzyl]-2-(1H-pyrazol-1-yl)pyrimidine-5-carboxamide]: the half-maximal inhibitory concentration (IC50) is at most 10 nM.

Regarding `Cc1ccc([C@@H](C)NC(=O)c2cnc(-n3cccn3)nc2O)cc1` [Example 78, 4-Hydroxy-N-[(1R)-1-(4-methylphenyl)ethyl]-2-(1H-pyrazol-1-yl)pyrimidine-5-carboxamide], the IC50 lay in the range of 10 to 100 nM.

With `O=C(NCc1ccc(Oc2ccccc2)cc1)c1cnc(-n2cccn2)nc1O` [Example 93, 4-hydroxy-N-(4-phenoxybenzyl)-2-(1H-pyrazol-1-yl)pyrimidine-5-carboxamide], the IC50 was at most 10 nM.

Consider `COc1ccc(CC(NC(=O)c2cnc(-c3cccnn3)nc2O)c2ccc(C#N)cc2)cc1` (single isomer, unassigned) [Example 161, N-[1-(4-cyanophenyl)-2-(4-methoxyphenyl)ethyl]-4-hydroxy-2-(pyridazin-3-yl)pyrimidine-5-carboxamide], for which the IC50 was at most 10 nM.

Consider `COc1ccc(C(NC(=O)c2cnc(-c3cccnn3)nc2O)c2ccc(O)cc2)cc1` (single isomer, unassigned) [Example 156, 4-hydroxy-N-[(4-hydroxyphenyl)(4-methoxyphenyl)methyl]-2-(pyridazin-3-yl)pyrimidine-5-carboxamide], for which the half-maximal inhibitory concentration (IC50) is at most 10 nM.

On to `COCc1ccc(C(NC(=O)c2cnc(-c3cccnn3)nc2O)c2ccc(COC)cc2)cc1` [Example 184, N-{bis[4-(methoxymethyl)phenyl]methyl}-4-hydroxy-2-pyridazin-3-ylpyrimidine-5-carboxamide], for which the IC50 was at most 10 nM.

As to `COc1ccc(C(NC(=O)c2cnc(-c3cccnn3)nc2O)c2nc3ccccc3s2)cc1` (stereo not drawn) [Example 173, N-[1,3-benzothiazol-2-yl(4-methoxyphenyl)methyl]-4-hydroxy-2-(pyridazin-3-yl)pyrimidine-5-carboxamide], the half-maximal inhibitory concentration (IC50) was at most 10 nM.

Turning to `CC[C@H](NC(=O)c1cnc(-c2csc(C)n2)nc1O)c1ccccc1` [Example 35, 4-Hydroxy-2-(2-methyl-1,3-thiazol-4-yl)-N-[(1S)-1-phenylpropyl]pyrimidine-5-carboxamide], the IC50 fell in the range of 10 to 100 nM.

As for `CC(NC(=O)c1cnc(-n2cccn2)nc1O)c1ccncc1` (stereo not drawn) [Example 86, 4-hydroxy-2-(1H-pyrazol-1-yl)-N-(1-pyridin-4-ylethyl)pyrimidine-5-carboxamide trifluoroacetate (salt)], the IC50 is at most 10 nM.

In the case of `COCc1ccc(C(NC(=O)c2cnc(-c3cccnn3)nc2O)c2ccc(OC)cc2)cc1` (single isomer, unassigned) [Example 183, 4-Hydroxy-N-[[4-(methoxymethyl)phenyl](4-methoxyphenyl)methyl]-2-pyridazin-3-ylpyrimidine-5-carboxamide], the IC50 was at most 10 nM.

On to `Cc1cccc(-c2ncc(C(=O)Nc3ccc(F)cc3Cl)c(O)n2)n1` [Example 16, N-(2-chloro-4-fluorophenyl)-4-hydroxy-2-(6-methylpyridin-2-yl)pyrimidine-5-carboxamide], for which the IC50 is 1000 to 10000 nM.

`O=C(NCc1ccc(-c2ccccc2F)nc1)c1cnc(-n2cccn2)nc1O` [Example 106, N-{[6-(2-fluorophenyl)pyridin-3-yl]methyl}-4-hydroxy-2-(1H-pyrazol-1-yl)pyrimidine-5-carboxamide]: the IC50 was at most 10 nM.

As for `Cc1nc(-c2ncc(C(=O)NCc3ccc(C(F)(F)F)cc3)c(O)n2)cs1` [Example 29, 4-Hydroxy-2-(2-methyl-1,3-thiazol-4-yl)-N-[4-(trifluoromethyl)benzyl]pyrimidine-5-carboxamide], the IC50 lay within 10 to 100 nM.

On to `COCc1ccc(C(NC(=O)c2cnc(-c3cccnn3)nc2O)c2ccc(OC)cc2)cc1` (single isomer, unassigned) [Example 182, 4-Hydroxy-N-[[4-(methoxymethyl)phenyl](4-methoxyphenyl)methyl]-2-pyridazin-3-ylpyrimidine-5-carboxamide], for which the IC50 was at most 10 nM.

Turning to `COc1ccc(C(NC(=O)c2cnc(-c3cccnn3)nc2O)c2ccc(OC)nc2)cc1` (single isomer, unassigned) [Example 191], the IC50 was at most 10 nM.

In the case of `O=C(NC(c1ccccc1)c1ccccn1)c1cnc(-n2cccn2)nc1O` (stereo not drawn) [Example 125, 4-hydroxy-N-[phenyl(pyridin-2-yl)methyl]-2-(1H-pyrazol-1-yl)pyrimidine-5-carboxamide trifluoroacetate (salt)], the IC50 was at most 10 nM.

As to `COc1ccc(C(NC(=O)c2cnc(-c3cccnn3)nc2O)c2ccc(C#N)cc2)c(OC)c1` (single isomer, unassigned) [Example 154, N-[(4-cyanophenyl)(2,4-dimethoxyphenyl)methyl]-4-hydroxy-2-(pyridazin-3-yl)pyrimidine-5-carboxamide], the IC50 is at most 10 nM.

With `O=C(NCc1ccccc1Cl)c1cnc(-c2cccnn2)nc1O` [Example 24, N-(2-chlorobenzyl)-4-hydroxy-2-pyridazin-3-ylpyrimidine-5-carboxamide], the IC50 fell in the range of 10 to 100 nM.

`O=C(N[C@@H](C(=O)O)c1ccccc1)c1cnc(-n2cccn2)nc1O` [Example 124, (2R)-({[4-hydroxy-2-(1H-pyrazol-1-yl)pyrimidin-5-yl]carbonyl}amino)(phenyl)ethanoic acid]: the IC50 is at most 10 nM.

For the molecule `O=C(NC1CCCCC1)c1cnc(-c2cccnn2)nc1O` [Example 135, N-cyclohexyl-4-hydroxy-2-(pyridazin-3-yl)pyrimidine-5-carboxamide], the IC50 was 10 to 100 nM.

Turning to `Cc1cccc(-c2ncc(C(=O)NCc3ccc(-c4ccccc4)cc3)c(O)n2)n1` [Example 15, N-(biphenyl-4-ylmethyl)-4-hydroxy-2-(6-methylpyridin-2-yl)pyrimidine-5-carboxamide], the IC50 is 100 to 1000 nM.
